{"source": "patent US20230414654A1", "about": "“METHODS OF TREATING COPPER METABOLISM-ASSOCIATED DISEASES OR DISORDERS” (Alexion Pharmaceuticals, Inc., priority 2020, published 2023)", "key": {"[1]": {"experiment": "Mobilization of copper from tissue (Studies 106, 201, 203)", "details": "Study 106, Study 201 (BC-TTM); Study 203 (SoC)"}, "[2]": {"details": "cited from earlier work"}, "[3]": {"details": "in vivo; cited from earlier work"}, "participants with WD": {"test_system": "participants with WD", "details": "for participants considered successfully treated (NCC/NCCcorrected primary endpoint): by Week 24; for participants considered successful (primary endpoint): last assessment of Extension Period", "description": "This study was conducted in US and European sites. […] A total of 28 participants were enrolled and treated (10 in Cohort 1 [treatment experienced] and 18 in Cohort 2 [treatment naïve or minimally treated]). One participant was enrolled in Cohort 2 but not treated.\nNCC levels within or above the normal reference range at enrollment were required. […] Dosing was individualized, guided by NCC levels (adjusted for molybdenum plasma concentration) and safety data. The primary efficacy endpoint was related to the proportion of successful participants, i.e., the proportion of participants who achieved plasma “free” copper control or improvement from baseline.\nDue to small sample size and data variability, the median values for the weighted averages of the doses will be cited throughout.\nThe primary endpoint in study 201 was the change in NCC/NCCcorrected from baseline to Week 24.\nIn Study 201, 12-hour dense PK/PD samples for plasma total molybdenum and copper were collected on Day 1, Week 12, and Week 24. Plasma samples for assessing “free” copper were also collected at 0, 4, and 8 hours during those visits and assayed for LBC concentrations. For the purpose of comparison across Studies 106 and 201, FIG. 3 has super-imposed LBC/total copper ratios-time profiles within the 12-hour time window after dosing from both studies."}}, "note": "Where two headings read alike, the source gives them in different places. Marks after values point to notes of the source that are not given here."}
{"compound": "CC(C)(S)[C@@H](N)C(=O)O", "note": "[Penicillamine, (2S)-2-amino-3-methyl-3-sulfanylbutanoic acid]", "values": [{"measurement": "Mobilization of Copper from Tissue", "setting": "[1]", "result": "No (Study 203)"}]}
{"compound": "NCCNCCNCCN", "note": "[Trientine, N-[2-(2-aminoethylamino)ethyl]ethane-1,2-diamine]", "values": [{"measurement": "Mobilization of Copper from Tissue", "setting": "[1]", "result": "No"}, {"measurement": "Cu-Binding Selectivity", "setting": "[2]", "result": "Cu^2+, and other"}]}
{"compound": "[Zn]", "note": "[Zinc, zinc]", "values": [{"measurement": "Route of Copper Elimination", "setting": "[3]", "result": "Non-absorbed"}, {"measurement": "Mobilization of Copper from Tissue", "setting": "[1]", "result": "No (Study 203)"}]}
{"compound": "Bis-choline tetrathiomolybdate [BC-TTM]", "values": [{"measurement": "Route of Copper Elimination", "setting": "[3]", "result": "Biliary/fecal"}, {"measurement": "Mobilization of Copper from Tissue", "setting": "[1]", "result": "Yes (Study 106;"}, {"measurement": "Cu-Binding Selectivity", "setting": "[2]", "result": "Cu^+ and Cu^2+*"}, {"measurement": "drop of LTC Ratio (LBC/total copper) from baseline", "setting": "participants with WD; Day 1, 4 hours post dose, weighted average dose 30 mg", "result": "~30", "unit": "%"}, {"measurement": "nadir drop of LTC Ratio compared to Day 1 pre-dose baseline", "setting": "participants with WD; Week 24, 4 hours post-dose, weighted average dose 35.8 mg", "result": "~50", "unit": "%"}, {"measurement": "reduction of mean serum non-ceruloplasmin-bound Cu (NCC)", "setting": "participants with WD; Week 24 compared with baseline, 28 patients with WD, monotherapy", "result": 72, "unit": "%"}, {"measurement": "reduction of pre-dose LTC Ratio compared to Day 1 pre-dose baseline", "setting": "participants with WD; Week 24 pre-dose, weighted average dose 35.8 mg", "result": "~30", "unit": "%"}, {"measurement": "participants considered successfully treated (NCC/NCCcorrected primary endpoint)", "setting": "participants with WD; Cohort 1 (treatment experienced)", "result": 90.0, "unit": "%"}, {"measurement": "participants considered successfully treated (NCC/NCCcorrected primary endpoint)", "setting": "participants with WD; Cohort 2 (treatment naïve or minimally treated)", "result": 83.3, "unit": "%"}, {"measurement": "paradoxical neurological worsening upon treatment initiation", "setting": "participants with WD; in vivo", "result": "No paradoxical neurological worsening was observed"}, {"measurement": "patients with reversible liver function test elevations", "setting": "participants with WD; in vivo", "result": 39, "unit": "%"}, {"measurement": "tolerability", "setting": "participants with WD; in vivo", "result": "generally well-tolerated"}, {"measurement": "participants considered successful (primary endpoint)", "setting": "participants with WD; Cohort 1", "result": 90.0, "unit": "%"}, {"measurement": "participants considered successful (primary endpoint)", "setting": "participants with WD; Cohort 2", "result": 83.3, "unit": "%"}, {"measurement": "participants considered successful (primary endpoint)", "setting": "participants with WD; all participants", "result": 85.7, "unit": "%"}, {"measurement": "time of maximum plasma total copper concentration post dose", "setting": "healthy participants; 15 mg or 60 mg single dose", "result": "8 to 12", "unit": "h"}, {"measurement": "maximum median increase of plasma total copper from baseline", "setting": "healthy participants; 8-12 hours post dose", "result": "26-34%"}, {"measurement": "median plasma LBC as % of pre-dose baseline concentration", "setting": "healthy participants; 12-24 hours post dose, combined ethnicity and dose data", "result": "80-90%"}, {"measurement": "median plasma LBC nadir as % of pre-dose baseline concentration", "setting": "healthy participants; 3 hours post dose, combined ethnicity and dose data", "result": "50-70%"}, {"measurement": "percentage of plasma LBC relative to plasma total copper (AUEC)", "setting": "healthy participants; after administration, all participants, both ethnicities and doses pooled", "result": 7, "unit": "%"}, {"measurement": "time at which median plasma LBC returned to baseline", "setting": "healthy participants; after dose", "result": 10, "unit": "days"}, {"measurement": "maximum individual plasma LBC concentration", "setting": "healthy participants; after single 15 mg dose", "result": 2.79, "unit": "µM"}, {"measurement": "maximum individual plasma total copper concentration", "setting": "healthy participants; after single 15 mg dose", "result": 23.0, "unit": "µM"}, {"measurement": "maximum individual plasma LBC concentration", "setting": "healthy participants; after single 60 mg dose", "result": 2.93, "unit": "µM"}, {"measurement": "maximum individual plasma total copper concentration", "setting": "healthy participants; after single 60 mg dose", "result": 21.7, "unit": "µM"}, {"measurement": "dose proportionality of plasma total molybdenum Cmax and AUC", "setting": "healthy participants; human, in vivo", "result": "less than dose-proportionally"}, {"measurement": "time to maximum plasma molybdenum (Tmax)", "setting": "healthy participants; human, in vivo", "result": 5, "unit": "h"}, {"measurement": "delay of maximum plasma total copper after maximum plasma total molybdenum", "setting": "healthy participants; in vivo", "result": "3 to 7", "unit": "h"}, {"measurement": "plasma molybdenum anticipated to be in the form of TPCs", "setting": "healthy participants; in vivo", "result": "approximately 96%"}, {"measurement": "time at which total copper concentrations had returned to predose baseline", "setting": "healthy participants; post dose", "result": 240, "unit": "h"}]}
